From patent US10960007B2, “Pharmacologically active aryl-substituted pyrazolo[1,5-a]pyrimidine derivatives” (RICHTER GEDEON NYRT., priority 2017, dated 2021)
Read-outs that look alike come from different tables or passages of the source.

Experiments:
GABAB receptor [1] = target: T1, GABAB receptor (Rattus norvegicus, UniProt O88871+Q9Z0U4); assay: In vitro [35S]GTPγS binding assay in rat cortical membranes; type: biochemical
T1 construct: from tissue; host or cells: rat brain cortex membranes
Procedure: In Vitro [^35S]GTPγS Binding Assay in Rat Cortical Membranes
Cortices of freshly harvested rat brains were dissected on an ice-cold surface and homogenized by a glass Dounce homogeniser immediately in ice-cold buffer containing 50 mM Tris, 5 mM MgCl2 and 1 mM EDTA (pH=7.6). Tissue homogenates were centrifuged at 40000 g for 15 min at 4° C. Membrane pellets were resuspended in the same buffer and membranes were incubated for 10 min at 30° C. in a shaking water bath to eliminate endogenous GABA. Homogenates were centrifuged again under the same conditions. The final pellets were resuspended in ice-cold buffer (pH=7.6) containing 50 mM Tris, 100 mM NaCl, 7 mM MgCl2, 1 mM EDTA and 1 mM dithiotreithol (DTT) to yield a concentration of 20 mg tissue weight/ml and frozen at −70° C. until use. The assay was done in a buffer containing 50 mM Tris (pH=7.4), 100 mM NaCl, 7 mM MgCl2, 1 mM EDTA and 1 mM DTT. Each assay tube contained 150 μL GDP (in a final concentration of 50 μM), 100 μL ligand and 125 μL of the membrane suspension (250 μg tissue/tube). The assay tubes were preincubated for 10 min at 30° C. to assure equilibrium. Nonspecific binding was determined in the presence of 10 μM GTPγS; basal binding was determined in the presence of buffer only. After addition of […] [^35S]GTPγS in a volume of 25 μL to the tubes, membranes were incubated for an additional 60 min at 30° C. The assay was terminated by rapid filtration through Packard UniFilter GF/B using a Packard harvester and washed four times with 1 ml ice-cold buffer. After drying the filters at 40° C. for 1 h, 40 μL Microscint (Packard) was added to the filters and radioactivity of the filters was determined by a TopCount NXT (PerkinElmer, Waltham, Mass.; Alper and Nelson, Eur. J. Pharmacol. 1998, 343, 303-312; Rinken et al, Biochem. Pharmacol. 1999, 57, 155-162). Data thus gathered were used to determine PAM EC50 values for each compound as primary in vitro activity end point.

GABAB receptor [2] = target: T2, GABAB receptor (Homo sapiens, UniProt O75899+Q9UBS5); settings: Perdona et al, Neuropharmacology 2011; read-out: EC50, positive modulation of EC20 GABA-evoked [35S]GTPγS binding signal; cited from earlier work
rats = settings: significance only at high doses (30 and 100 mg/kg); cited from earlier work
mice = settings: cited from earlier work
[3] = human conventional liver microsomes; cited from earlier work
[4] = rat conventional liver microsomes; cited from earlier work
[5] = mouse conventional liver microsomes; cited from earlier work
GABAB receptor [6] = target: T2, GABAB receptor; settings: compounds of Faghih et al., US 2016/0304527 A1; cited from earlier work
adult rats = assay: Foot shock-induced ultrasonic vocalization (USV) in adult rats; type: in vivo, rat; settings: male Wistar rats; for inhibition in vivo at 10 mg/kg: Rattus norvegicus, po, 10 mg/kg per os, 1 h before shocking
Procedure: Foot Shock-Induced Ultrasonic Vocalization (USV) in Adult Rats
(§1) Under stressful conditions, adult rats emit 22 kHz ultrasounds that can be reduced by various pharmacological treatments (De Vry et al, Eur. J. Pharmacol. 1993, 249, 331-339; Sanchez, Eur. J. Pharmacol. 2003, 463, 133-143). […] Therefore, a foot shock-induced vocalization paradigm in adult rats was used to assess in vivo efficacy of centrally acting GABAB receptor ligands. Behavioral measurements were carried out on male Wistar rats (200-250 g, Toxicoop, Hungary). Rats were housed in groups of four in plastic cages with a wire grid top in a temperature and light-controlled laboratory animal care unit (22±2° C., 12-h light/dark cycle, lights on at 6:00 AM) with ad libitum access to commercial pellet rat food and tap water. Investigations were approved by the Local Ethical Committee of Gedeon Richter Plc. and were carried out in strict compliance with the European Directive 2010/63/EU regarding the care and use of laboratory animals for experimental procedures and all efforts were made to minimize the number of animals as well as their suffering. In order to evoke emission of ultrasounds, animals were footshocked after a habituation period of 30 s (6 shocks, 1 s, 0.8 mA each, inter-shock interval 10 s) in a sound attenuated shocking chamber (Experimetria, 40×40×80 cm). […] Vocalizations were measured right after the last footshock for 10 min with a Metris Sonotrack system and the total time of vocalizations was registered. Vocalization of parallel vehicle treated animals was considered as control value and inhibition percent was calculated for each compound. At approximately 75 min after treatment and behavioral measurements, blood and brain samples were harvested in order to determine exposures associated with in vivo activity.

[7] = Plasma and brain exposure after USV measurement; type: in vivo; settings: rat, per os, about 75 min after treatment
Procedure: as §1

[8] = [35S]GTPγS binding, rat cortical membranes, read-out: In vitro PAM potency (PAM EC50)

T1 sequence (O88871 41-940): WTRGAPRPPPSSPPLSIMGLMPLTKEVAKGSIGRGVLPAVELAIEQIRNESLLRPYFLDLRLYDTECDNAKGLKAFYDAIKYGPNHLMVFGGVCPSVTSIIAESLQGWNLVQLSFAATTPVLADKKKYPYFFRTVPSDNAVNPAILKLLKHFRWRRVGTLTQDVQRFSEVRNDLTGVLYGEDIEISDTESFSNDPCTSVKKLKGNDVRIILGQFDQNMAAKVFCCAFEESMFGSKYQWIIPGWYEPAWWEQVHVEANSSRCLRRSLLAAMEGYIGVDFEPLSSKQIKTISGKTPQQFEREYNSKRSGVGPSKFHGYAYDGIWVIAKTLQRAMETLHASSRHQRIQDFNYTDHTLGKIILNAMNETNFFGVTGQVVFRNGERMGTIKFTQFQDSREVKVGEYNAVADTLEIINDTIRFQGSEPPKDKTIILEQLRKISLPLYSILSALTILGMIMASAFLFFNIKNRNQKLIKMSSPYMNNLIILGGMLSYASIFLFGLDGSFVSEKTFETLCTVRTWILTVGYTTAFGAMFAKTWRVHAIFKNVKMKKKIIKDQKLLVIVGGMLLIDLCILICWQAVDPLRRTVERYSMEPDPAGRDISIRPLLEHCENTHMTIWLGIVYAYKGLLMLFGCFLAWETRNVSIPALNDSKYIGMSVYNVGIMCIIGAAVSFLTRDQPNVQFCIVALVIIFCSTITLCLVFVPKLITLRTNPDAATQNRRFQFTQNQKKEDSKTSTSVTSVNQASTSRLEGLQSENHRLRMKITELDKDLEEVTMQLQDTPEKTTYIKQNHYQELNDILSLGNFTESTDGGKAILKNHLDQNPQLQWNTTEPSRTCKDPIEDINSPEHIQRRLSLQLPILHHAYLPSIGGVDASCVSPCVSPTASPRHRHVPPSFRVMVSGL
T1 sequence (Q9Z0U4 17-960 limits assumed): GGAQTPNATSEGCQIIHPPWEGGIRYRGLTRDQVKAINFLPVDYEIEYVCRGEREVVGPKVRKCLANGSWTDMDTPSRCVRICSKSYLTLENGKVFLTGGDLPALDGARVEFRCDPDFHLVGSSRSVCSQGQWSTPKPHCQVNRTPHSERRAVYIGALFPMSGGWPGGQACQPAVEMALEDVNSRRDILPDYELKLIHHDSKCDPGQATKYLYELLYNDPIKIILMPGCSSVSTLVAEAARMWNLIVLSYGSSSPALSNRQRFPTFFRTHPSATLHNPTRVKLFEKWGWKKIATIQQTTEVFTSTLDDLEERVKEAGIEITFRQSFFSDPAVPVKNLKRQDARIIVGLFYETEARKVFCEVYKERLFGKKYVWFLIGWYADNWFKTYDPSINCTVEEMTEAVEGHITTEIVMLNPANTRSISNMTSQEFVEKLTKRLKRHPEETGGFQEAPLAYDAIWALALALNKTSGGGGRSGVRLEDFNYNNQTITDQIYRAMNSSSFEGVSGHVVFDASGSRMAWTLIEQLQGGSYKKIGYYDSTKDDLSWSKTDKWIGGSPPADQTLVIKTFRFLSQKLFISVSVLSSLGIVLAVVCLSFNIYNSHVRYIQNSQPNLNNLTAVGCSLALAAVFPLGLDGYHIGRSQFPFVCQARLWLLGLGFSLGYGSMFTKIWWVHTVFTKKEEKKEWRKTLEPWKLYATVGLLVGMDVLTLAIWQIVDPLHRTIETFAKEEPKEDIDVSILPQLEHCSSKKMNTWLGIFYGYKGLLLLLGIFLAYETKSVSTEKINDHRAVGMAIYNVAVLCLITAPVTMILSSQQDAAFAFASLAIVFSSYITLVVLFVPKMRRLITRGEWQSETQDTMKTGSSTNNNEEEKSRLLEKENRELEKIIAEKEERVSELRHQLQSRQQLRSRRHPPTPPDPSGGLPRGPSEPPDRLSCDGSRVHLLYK
T2 sequence (O75899 42-941): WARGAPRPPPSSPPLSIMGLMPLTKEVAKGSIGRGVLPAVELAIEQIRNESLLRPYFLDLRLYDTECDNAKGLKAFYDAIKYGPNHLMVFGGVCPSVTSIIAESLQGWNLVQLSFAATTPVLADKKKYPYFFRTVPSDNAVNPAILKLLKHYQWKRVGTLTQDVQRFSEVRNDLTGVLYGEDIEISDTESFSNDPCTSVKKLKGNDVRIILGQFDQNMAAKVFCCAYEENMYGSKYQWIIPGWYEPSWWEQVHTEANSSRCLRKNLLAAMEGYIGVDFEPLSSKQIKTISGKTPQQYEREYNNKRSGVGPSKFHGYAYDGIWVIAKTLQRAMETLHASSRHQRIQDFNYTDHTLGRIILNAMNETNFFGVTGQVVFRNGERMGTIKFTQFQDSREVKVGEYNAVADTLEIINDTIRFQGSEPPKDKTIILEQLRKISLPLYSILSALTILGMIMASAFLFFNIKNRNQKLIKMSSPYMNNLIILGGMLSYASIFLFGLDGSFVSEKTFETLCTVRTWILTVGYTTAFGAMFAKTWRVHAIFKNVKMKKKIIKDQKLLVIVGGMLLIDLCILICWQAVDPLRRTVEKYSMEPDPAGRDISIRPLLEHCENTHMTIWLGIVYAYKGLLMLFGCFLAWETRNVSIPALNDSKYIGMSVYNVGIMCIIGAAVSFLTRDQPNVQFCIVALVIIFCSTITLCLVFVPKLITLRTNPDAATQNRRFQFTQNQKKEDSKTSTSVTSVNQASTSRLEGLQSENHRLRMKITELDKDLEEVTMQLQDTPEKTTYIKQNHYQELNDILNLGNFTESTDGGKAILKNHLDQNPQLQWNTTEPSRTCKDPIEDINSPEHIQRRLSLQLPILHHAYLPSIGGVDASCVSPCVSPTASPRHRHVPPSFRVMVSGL
T2 sequence (Q9UBS5 15-961 limits assumed): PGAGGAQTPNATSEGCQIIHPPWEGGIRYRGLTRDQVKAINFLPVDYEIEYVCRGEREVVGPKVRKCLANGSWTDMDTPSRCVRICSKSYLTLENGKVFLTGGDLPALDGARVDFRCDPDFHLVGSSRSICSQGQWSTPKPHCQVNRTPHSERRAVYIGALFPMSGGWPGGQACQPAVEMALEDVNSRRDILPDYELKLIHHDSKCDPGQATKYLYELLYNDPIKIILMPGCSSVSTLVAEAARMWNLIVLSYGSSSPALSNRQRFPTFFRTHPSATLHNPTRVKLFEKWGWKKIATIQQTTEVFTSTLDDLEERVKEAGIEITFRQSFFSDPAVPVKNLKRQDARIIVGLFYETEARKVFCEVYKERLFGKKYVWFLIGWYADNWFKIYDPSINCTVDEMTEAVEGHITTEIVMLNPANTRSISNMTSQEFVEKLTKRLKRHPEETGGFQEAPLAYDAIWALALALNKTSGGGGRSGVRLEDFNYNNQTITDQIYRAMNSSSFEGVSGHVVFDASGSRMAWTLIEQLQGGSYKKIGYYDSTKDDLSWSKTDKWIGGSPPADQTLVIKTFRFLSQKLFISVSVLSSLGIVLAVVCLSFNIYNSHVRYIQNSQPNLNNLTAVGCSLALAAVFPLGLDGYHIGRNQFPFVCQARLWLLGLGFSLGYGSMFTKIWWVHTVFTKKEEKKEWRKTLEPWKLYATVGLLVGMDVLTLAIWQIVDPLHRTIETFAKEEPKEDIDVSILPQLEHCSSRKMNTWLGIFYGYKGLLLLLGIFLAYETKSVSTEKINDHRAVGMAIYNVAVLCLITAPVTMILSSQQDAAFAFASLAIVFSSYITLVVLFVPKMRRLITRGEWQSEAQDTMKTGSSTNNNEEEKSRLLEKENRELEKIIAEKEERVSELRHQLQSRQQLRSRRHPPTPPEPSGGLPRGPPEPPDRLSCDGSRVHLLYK

Row | SMILES | EC50 (GABAB receptor [1]; [8]) | inhibition in vivo at 10 mg/kg (adult rats) | Brain exposure at 1 mg/kg ([7]; formulation Tween) | Plasma exposure at 1 mg/kg ([7]; formulation Tween) | also measured
1 | Cc1cc(N2CCCCC2CCO)n2nc(-c3ccc(Cl)cc3)cc2n1 (centres unmarked) [CMPPE, 2-{1-[2-(4-chlorophenyl)-5-methylpyrazolo[1,5-a]pyrimidin-7-yl]-2-piperidinyl}ethanol] | – | – | – | – | EC50 (GABAB receptor [1]; applicant's test system, read-out: EC50 in our in vitro [35S]GTPγS test system): 611 nM; EC50 (GABAB receptor [2]): 2570 nM; Efficacy in food consumption test (rats): mild efficacy; ED50, potentiation of baclofen-induced muscle relaxation (mice): 53.8 mg/kg; Clint [3]: 0.19±0.02 mL/min/g liver; Clint [4]: 0.31±0.07 mL/min/g liver; Clint [5]: 1.18±0.4 mL/min/g liver
2 | CCC(c1ccc(Cl)cc1)c1cc2nc(C)cc(N3CCCCC3CCO)n2n1 (centres unmarked) [Example 3-1] | – | – | – | – | Binding potency (in words) (GABAB receptor [6]): nanomolar
3 | Cc1nc2cc(-c3ccc(C(F)(F)F)cc3F)nn2c(N2CCC[C@@](C(=O)O)(C(C)C)C2)c1C(C)C [Example 11, (3R)-1-{2-[2-Fluoro-4-(trifluoromethyl)phenyl]-5-methyl-6-(propan-2-yl)pyrazolo[1,5-a]pyrimidin-7-yl}-3-(propan-2-yl)piperidine-3-carboxylic acid] | 1 to 10 nM | 15% | 165 ng/g | 326 ng/mL | –
4 | Cc1nc2cc(-c3ccc(C(F)(F)F)cc3)nn2c(N2CCC[C@](C)(C(=O)O)C2)c1C(C)C [Example 12, (3S)-3-Methyl-1-[5-methyl-6-(propan-2-yl)-2-[4-(trifluoromethyl)phenyl]pyrazolo[1,5-a]pyrimidin-7-yl]piperidine-3-carboxylic acid] | 1 to 10 nM | 63% | 218 ng/g | 283 ng/mL | –
5 | Cc1nc2cc(-c3ccc(C(F)(F)F)cc3Cl)nn2c(N2CCC[C@](C)(C(=O)O)C2)c1C(C)C [Example 13, (3S)-1-{2-[2-Chloro-4-(trifluoromethyl)phenyl]-5-methyl-6-(propan-2-yl)pyrazolo[1,5-a]pyrimidin-7-yl}-3-methylpiperidine-3-carboxylic acid] | 1 to 10 nM | 90% | 424 ng/g | 843 ng/mL | –
6 | CC[C@]1(C(=O)O)CCCN(c2c(C(C)C)c(C)nc3cc(-c4ccc(C(F)(F)F)c(F)c4)nn23)C1 [Example 14, (3S)-3-Ethyl-1-{2-[3-fluoro-4-(trifluoromethyl)phenyl]-5-methyl-6-(propan-2-yl)pyrazolo[1,5-ala]pyrimidin-7-yl}piperidine-3-carboxylic acid] | 10 to 100 nM | 47% | – | – | Brain exposure at 1 mg/kg ([7]; formulation SpD1): 1962 ng/g; Plasma exposure at 1 mg/kg ([7]; formulation SpD1): 2323 ng/mL
7 | CC[C@]1(C(=O)O)CCCN(c2c(C(C)C)c(C)nc3c(F)c(-c4ccc(C(F)(F)F)cc4)nn23)C1 [Example 15, (3S)-3-Ethyl-1-[3-fluoro-5-methyl-6-(propan-2-yl)-2-[4-(trifluoromethyl)phenyl]pyrazolo[1,5-a]pyrimidin-7-yl]piperidine-3-carboxylic acid] | 1 to 10 nM | 85% | – | – | Brain exposure at 1 mg/kg ([7]; formulation SpD1): 1377 ng/g; Plasma exposure at 1 mg/kg ([7]; formulation SpD1): 1317 ng/mL
8 | COCC1(C(=O)O)CCCN(c2c(C(C)C)c(C)nc3cc(-c4ccc(C(F)(F)F)cc4)nn23)C1 (centres unmarked) [Example 16] | 10 to 100 nM | 41% | 28 ng/g | 103 ng/mL | –
9 | COCC1(C(=O)O)CCCN(c2c(C(C)C)c(C)nc3cc(-c4ccc(C(F)(F)F)cc4F)nn23)C1 (centres unmarked) [Example 17, 1-{2-[2-Fluoro-4-(trifluoromethyl)phenyl]-5-methyl-6-(propan-2-yl)pyrazolo[1,5-a]pyrimidin-7-yl}-3-(methoxymethyl)piperidine-3-carboxylic acid] | 1 to 10 nM | 44% | 144 ng/g | 443 ng/mL | –
10 | Cc1nc2cc(-c3ccc(C(F)(F)F)cc3)nn2c(N2CCC[C@@](C(=O)O)(C(C)C)C2)c1C(C)C [Example 28] | 10 to 100 nM | 35% | 184 ng/g | 222 ng/mL | –
11 | Cc1nc2c(F)c(-c3ccc(C(F)(F)F)cc3)nn2c(N2CCC[C@](C)(C(=O)O)C2)c1C(C)C [Example 84] | 1 to 10 nM | – | 85 ng/g | 113 ng/mL | USV inhibition (%) (adult rats; at 3 mg/kg, per os): 42 (at 3 mg/kg) %
